Measurements from the supplement of paper PMC10307832.

What was measured:
Assay in all cases: relative viability (nuclei count vs DMSO), 5 days (fraction); higher = more cells survive
NCI-H3122 = tested on: NCI-H3122
Method in brief: (§1)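 Each reported value is a median over duplicate plates. It expresses relative viability: treated-well nuclei count divided by vehicle-well nuclei count. Lung cancer cell lines in 1536-well plates were dosed by pin tool a day after seeding, alone with one drug or with a fixed anchor-drug dose plus five library-drug doses (not always all listed) in √10 steps, and nuclei were counted after 5 days.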

HARA = tested on: HARA
Method in brief: as §1

NCI-H838 = tested on: NCI-H838
Method in brief: as §1

CAL-12T = tested on: CAL-12T
Method in brief: as §1

LU99A = tested on: LU99A
Method in brief: as §1

NCI-H2009 = tested on: NCI-H2009
Method in brief: as §1

COR-L23 = tested on: COR-L23
Method in brief: as §1

NCI-H441 = tested on: NCI-H441
Method in brief: as §1

NCI-H727 = tested on: NCI-H727
Method in brief: as §1

LK-2 = tested on: LK-2
Method in brief: as §1

EKVX = tested on: EKVX
Method in brief: as §1

ABC-1 = tested on: ABC-1
Method in brief: as §1

NCI-H1666 = tested on: NCI-H1666
Method in brief: as §1

201T = tested on: 201T
Method in brief: as §1

COR-L 105 = tested on: COR-L 105
Method in brief: as §1

NCI-H661 = tested on: NCI-H661
Method in brief: as §1

PC-14 = tested on: PC-14
Method in brief: as §1

HCC-366 = tested on: HCC-366
Method in brief: as §1

NCI-H1437 = tested on: NCI-H1437
Method in brief: as §1

BEN = tested on: BEN
Method in brief: as §1

Work on O=C(O)c1ccc(-c2c[nH]c3ncc(-c4ccccc4)cc23)cc1C1CCCC1 + C[C@]1(O)C[C@@H](c2nc(-c3ccc4ccc(-c5ccccc5)nc4c3)c3c(N)nccn32)C1 [Linsitinib] (partner 1 µM) yielded a relative viability (NCI-H3122; first compound 0.04 µM) of 0.966, a relative viability (NCI-H3122; first compound 0.1265 µM) of 1.02 and a relative viability (NCI-H3122; first compound 0.4 µM) of 0.942. It also gave a relative viability (NCI-H3122; first compound 1.265 µM) of 0.838, a relative viability (HARA; first compound 0.04 µM) of 0.905 and a relative viability (HARA; first compound 0.1265 µM) of 0.983. For the same compound, the relative viability (HARA; first compound 0.4 µM) was 0.994, the relative viability (HARA; first compound 1.265 µM) was 0.748 and the relative viability (NCI-H838; first compound 0.04 µM) was 1.03. It also gave a relative viability (NCI-H838; first compound 0.1265 µM) of 1.16, a relative viability (NCI-H838; first compound 0.4 µM) of 1.09 and a relative viability (NCI-H838; first compound 1.265 µM) of 0.997. The relative viability (CAL-12T; first compound 0.04 µM) was 0.799, the relative viability (CAL-12T; first compound 0.1265 µM) was 0.834 and the relative viability (CAL-12T; first compound 0.4 µM) was 0.963. The relative viability (CAL-12T; first compound 1.265 µM) was 0.6, the relative viability (LU99A; first compound 0.04 µM) was 0.548 and the relative viability (LU99A; first compound 0.1265 µM) was 0.528. The relative viability (LU99A; first compound 0.4 µM) was 0.533, the relative viability (LU99A; first compound 1.265 µM) was 0.511 and the relative viability (NCI-H2009; first compound 0.04 µM) was 1.23. The relative viability (NCI-H2009; first compound 0.1265 µM) was 1.21, the relative viability (NCI-H2009; first compound 0.4 µM) was 1.15 and the relative viability (NCI-H2009; first compound 1.265 µM) was 1.08. For the same compound, the relative viability (COR-L23; first compound 0.04 µM) was 0.866, the relative viability (COR-L23; first compound 0.1265 µM) was 0.951 and the relative viability (COR-L23; first compound 0.4 µM) was 0.771. For the same compound, the relative viability (COR-L23; first compound 1.265 µM) was 0.444, the relative viability (NCI-H441; first compound 0.04 µM) was 0.666 and the relative viability (NCI-H441; first compound 0.1265 µM) was 0.674. It also gave a relative viability (NCI-H441; first compound 0.4 µM) of 0.563, a relative viability (NCI-H441; first compound 1.265 µM) of 0.531 and a relative viability (NCI-H727; first compound 0.04 µM) of 0.381. The relative viability (NCI-H727; first compound 0.1265 µM) was 0.361, the relative viability (NCI-H727; first compound 0.4 µM) was 0.243 and the relative viability (NCI-H727; first compound 1.265 µM) was 0.294. It also gave a relative viability (LK-2; first compound 0.04 µM) of 0.667, a relative viability (LK-2; first compound 0.1265 µM) of 0.587 and a relative viability (LK-2; first compound 0.4 µM) of 0.549. For the same compound, the relative viability (LK-2; first compound 1.265 µM) was 0.902, the relative viability (EKVX; first compound 0.04 µM) was 0.984 and the relative viability (EKVX; first compound 0.1265 µM) was 1.18. For the same compound, the relative viability (EKVX; first compound 0.4 µM) was 1.11, the relative viability (EKVX; first compound 1.265 µM) was 0.713 and the relative viability (ABC-1; first compound 0.04 µM) was 0.753. The relative viability (ABC-1; first compound 0.1265 µM) was 0.808, the relative viability (ABC-1; first compound 0.4 µM) was 0.962 and the relative viability (ABC-1; first compound 1.265 µM) was 0.716. For the same compound, the relative viability (NCI-H1666; first compound 0.04 µM) was 0.755, the relative viability (NCI-H1666; first compound 0.1265 µM) was 0.829 and the relative viability (NCI-H1666; first compound 0.4 µM) was 0.703. It also gave a relative viability (NCI-H1666; first compound 1.265 µM) of 0.81, a relative viability (201T; first compound 0.04 µM) of 1.07 and a relative viability (201T; first compound 0.1265 µM) of 1.06. It also gave a relative viability (201T; first compound 0.4 µM) of 0.979, a relative viability (201T; first compound 1.265 µM) of 0.946 and a relative viability (COR-L 105; first compound 0.04 µM) of 1.07. The relative viability (COR-L 105; first compound 0.1265 µM) was 0.919, the relative viability (COR-L 105; first compound 0.4 µM) was 1 and the relative viability (COR-L 105; first compound 1.265 µM) was 0.92. For the same compound, the relative viability (NCI-H661; first compound 0.04 µM) was 0.576, the relative viability (NCI-H661; first compound 0.1265 µM) was 0.603 and the relative viability (NCI-H661; first compound 0.4 µM) was 0.572. It also gave a relative viability (NCI-H661; first compound 1.265 µM) of 0.736, a relative viability (PC-14; first compound 0.04 µM) of 0.937 and a relative viability (PC-14; first compound 0.1265 µM) of 0.947. The relative viability (PC-14; first compound 0.4 µM) was 1.01, the relative viability (PC-14; first compound 1.265 µM) was 0.798 and the relative viability (HCC-366; first compound 0.04 µM) was 0.657. It also gave a relative viability (HCC-366; first compound 0.1265 µM) of 0.759, a relative viability (HCC-366; first compound 0.4 µM) of 0.882 and a relative viability (HCC-366; first compound 1.265 µM) of 0.573. For the same compound, the relative viability (NCI-H1437; first compound 0.04 µM) was 1.03, the relative viability (NCI-H1437; first compound 0.1265 µM) was 1.09 and the relative viability (NCI-H1437; first compound 0.4 µM) was 0.969. The relative viability (NCI-H1437; first compound 1.265 µM) was 0.55, the relative viability (BEN; first compound 0.04 µM) was 1.03 and the relative viability (BEN; first compound 0.1265 µM) was 1.03. For the same compound, the relative viability (BEN; first compound 0.4 µM) was 0.931 and the relative viability (BEN; first compound 1.265 µM) was 0.859.
